Source: paper PMC7382742, “Identification of Potential Inhibitors of Calcium/Calmodulin-Dependent Protein Kinase IV from Bioactive Phytoconstituents” (Oxidative Medicine and Cellular Longevity, 2020)

Columns and labels:
[1] = molecular target: T1, Calcium/calmodulin-dependent protein kinase IV (CaMKIV) (Homo sapiens, UniProt Q16566); assay: malachite green (BIOMOL Green) ATPase inhibition assay with recombinant refolded CaMKIV; also intrinsic fluorescence quenching (Ksv […] ^-1); assay type: biochemical
T1 construct: gene CAMK4; CaMKIV kinase domain
T1 sequence (Q16566 46-300 limits assumed): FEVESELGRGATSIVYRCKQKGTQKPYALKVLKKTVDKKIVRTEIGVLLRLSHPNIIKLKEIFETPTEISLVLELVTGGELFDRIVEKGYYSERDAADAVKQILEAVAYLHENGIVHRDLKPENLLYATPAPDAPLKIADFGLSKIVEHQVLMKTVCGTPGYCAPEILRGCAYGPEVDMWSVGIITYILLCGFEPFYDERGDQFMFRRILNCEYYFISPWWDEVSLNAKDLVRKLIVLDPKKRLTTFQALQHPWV

[2] = molecular target: T1, Calcium/calmodulin-dependent protein kinase IV (CaMKIV); assay: malachite green (BIOMOL Green) ATPase inhibition assay with recombinant refolded CaMKIV; also intrinsic fluorescence quenching (binding constant […] ^-1); assay type: biochemical

| SMILES | IC50 [1] | IC50 [2] |
| --- | --- | --- |
| O=c1c(O)c(-c2ccc(O)c(O)c2)oc2cc(O)cc(O)c12 [quercetin] | 61.3 ± 5.4 µM |  |
| O=c1oc2c(O)c(O)cc3c(=O)oc4c(O)c(O)cc1c4c23 [EA, ellagic acid] |  | 39.7 ± 8.6 µM |
